Some test systems named below: 786-0 renal; CAKI-1 renal; HCC-2998 colon; IGROV1 ovarian; MDA-MB-435; OVCAR-3 ovarian; OVCAR-4 ovarian; PC-3 prostate; SK-MEL-5 melanoma; U251 CNS.
Common to all, as to test: NCI anticancer screen, dose series, 48 h

Results on 7 compounds are retold here after PubChem BioAssay (NCI).

Each structure is given as a SMILES string. Where “and” joins values, the source holds several entries; their conditions need not be identical. Equal values may be shown once.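 Test compounds were applied to cells in 96-well plates for 48 hours at 5 doses. GI50: concentration for 50% inhibition of growth. Definition used: TGI = concentration required for complete inhibition of growth.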 A value given as a limit tells only on which side of the number the result lay.

With `CCn1cc(-c2ccnc3[nH]c(-c4cccc(CN(C)C)c4)cc23)c(-c2ccc(NC(=O)N(C)C)cc2)n1`, the GI50 with 786-0 renal was 2.79 µM and 2.59 µM; in the experiment with CAKI-1 renal it was 3.36 µM and 1.17 µM; with HCC-2998 colon, 7.29 µM and > 10 µM; with IGROV1 ovarian, 3.47 µM and 1.9 µM; in the experiment on MDA-MB-435, 4.77 µM and > 10 µM; in the experiment with OVCAR-3 ovarian, 3.82 µM and 3.15 µM. The GI50 in the experiment with OVCAR-4 ovarian is 0.479 µM and 3.41 µM; in the experiment with PC-3 prostate it was 1.46 µM and 3.02 µM; with SK-MEL-5 melanoma, 6.55 µM; with U251 CNS, 2.34 µM and 4.03 µM. In addition, the TGI with 786-0 renal is 20.3 µM and > 10 µM; in the experiment on CAKI-1 renal it was 18.9 µM and > 10 µM; in the experiment with HCC-2998 colon, 21.5 µM and > 10 µM; in the experiment on IGROV1 ovarian, 33.2 µM and > 10 µM; in the experiment with MDA-MB-435, 21.4 µM and > 10 µM; in the experiment with OVCAR-3 ovarian, 23.9 µM and > 10 µM. For the same compound, the TGI was 37.1 µM and > 10 µM in the experiment with OVCAR-4 ovarian; 27 µM and > 10 µM in the experiment on PC-3 prostate; 23.6 µM in the experiment on SK-MEL-5 melanoma; 19.1 µM and > 10 µM with U251 CNS.
Regarding `CC(C)=CCC1=C(O)c2ccccc2C(=O)C1=O`, the GI50 was > 100 µM and 21.6 µM and 26.1 µM in the experiment on 786-0 renal; > 100 µM and 46.2 µM and 14.8 µM with IGROV1 ovarian; 21.8 µM in the experiment on MDA-MB-435; 11.7 µM with OVCAR-4 ovarian; 11.2 µM with SK-MEL-5 melanoma. In addition, the TGI in the experiment on 786-0 renal, with CAKI-1 renal, with HCC-2998 colon, with IGROV1 ovarian, with MDA-MB-435 and in the experiment on OVCAR-3 ovarian was > 100 µM in each case. Besides, the TGI with OVCAR-4 ovarian was > 100 µM; in the experiment with PC-3 prostate, > 100 µM; in the experiment on SK-MEL-5 melanoma it was 27 µM and 28 µM; in the experiment on U251 CNS, > 100 µM.
As to `COc1ccc(-c2cc(=O)oc3c4c(ccc23)OCN(Cc2ccc(F)cc2)C4)cc1`, the GI50 was 15.1 µM in the experiment with 786-0 renal; 14.7 µM with CAKI-1 renal; 19.2 µM in the experiment with HCC-2998 colon; 20.5 µM in the experiment with IGROV1 ovarian; 16.5 µM in the experiment with MDA-MB-435; 15.3 µM in the experiment with OVCAR-3 ovarian. Besides, the GI50 in the experiment with OVCAR-4 ovarian was 17.4 µM; in the experiment on PC-3 prostate, 15.8 µM; with SK-MEL-5 melanoma, 12.7 µM; in the experiment with U251 CNS, 14.8 µM. The TGI turned out to be 32.8 µM in the experiment on 786-0 renal; 44.3 µM with CAKI-1 renal; 37 µM with HCC-2998 colon; 51.5 µM in the experiment with IGROV1 ovarian; 34.7 µM in the experiment with MDA-MB-435; 29.9 µM with OVCAR-3 ovarian. Further, the TGI is 43.2 µM in the experiment with OVCAR-4 ovarian, 44.1 µM in the experiment with PC-3 prostate, 25.4 µM in the experiment on SK-MEL-5 melanoma and 29 µM in the experiment on U251 CNS.
With `COc1cc2c3c(n(C)c(=O)c2cc1OC)-c1cc2c(cc1C3=O)OCO2`, the TGI in the experiment on 786-0 renal was > 77.7 µM; in the experiment on CAKI-1 renal, > 53.1 µM; in the experiment on HCC-2998 colon, > 100 µM; in the experiment on IGROV1 ovarian it was 40.9 µM; with MDA-MB-435, > 100 µM; in the experiment on OVCAR-3 ovarian, > 100 µM. Moreover, the TGI with OVCAR-4 ovarian is > 100 µM; in the experiment on PC-3 prostate it was > 100 µM; with SK-MEL-5 melanoma, > 44.8 µM; in the experiment on U251 CNS, > 100 µM.
With `COc1ccc(-c2c(C#N)c(N3CCOCC3)nc3[nH]c(=S)[nH]c(=S)c23)cc1OC`, the GI50 with 786-0 renal is 30.7 µM; in the experiment with CAKI-1 renal, 30.7 µM; in the experiment on HCC-2998 colon, 36 µM; in the experiment on IGROV1 ovarian, > 100 µM; in the experiment with MDA-MB-435, 54.8 µM; in the experiment with OVCAR-3 ovarian, 34.6 µM. Moreover, the GI50 with OVCAR-4 ovarian is 76.6 µM; with PC-3 prostate, 40.3 µM; in the experiment on SK-MEL-5 melanoma it was 27.5 µM; in the experiment with U251 CNS, 46.5 µM. The TGI with 786-0 renal is > 100 µM; with CAKI-1 renal, 87.3 µM; with HCC-2998 colon it was > 100 µM; with IGROV1 ovarian, > 100 µM; in the experiment with MDA-MB-435, > 100 µM; in the experiment with OVCAR-3 ovarian, > 100 µM. The TGI in the experiment with OVCAR-4 ovarian, with PC-3 prostate, in the experiment with SK-MEL-5 melanoma and in the experiment with U251 CNS was > 100 µM in each case.
As to `COC(=O)C1=CN(CC2=CC(=O)C(C)=CC2=O)C=C(C(=O)OC)C1c1ccccc1OC`, the GI50 with 786-0 renal is 15.1 µM; in the experiment on CAKI-1 renal, 16.7 µM; in the experiment with HCC-2998 colon, 15.5 µM; in the experiment on IGROV1 ovarian, 22.3 µM; in the experiment with MDA-MB-435, 21.8 µM; with OVCAR-3 ovarian, 13.2 µM. Besides, the GI50 with OVCAR-4 ovarian is 22.5 µM; in the experiment on PC-3 prostate it was 14.9 µM; in the experiment on SK-MEL-5 melanoma, 14.2 µM; in the experiment with U251 CNS, 20 µM. The TGI in the experiment with 786-0 renal is 28.9 µM; in the experiment on CAKI-1 renal it was 37.9 µM; with HCC-2998 colon it was 28.9 µM; in the experiment with IGROV1 ovarian it was 57.3 µM; in the experiment on MDA-MB-435 it was > 53.7 µM; with OVCAR-3 ovarian, 26.8 µM. Further, the TGI in the experiment on OVCAR-4 ovarian was > 67.4 µM; with PC-3 prostate, 29.8 µM; in the experiment on SK-MEL-5 melanoma, 30.4 µM; in the experiment with U251 CNS it was 46.7 µM.
`C=C(C)C(C1C=C(CCC(C=O)=C(C)C)C(=O)O1)C1(OC)C=C(C)C(=O)O1` (stereo not given): the GI50 with 786-0 renal was > 100 µM; in the experiment with CAKI-1 renal, > 100 µM; in the experiment with HCC-2998 colon it was > 100 µM; in the experiment with IGROV1 ovarian, 92.6 µM; in the experiment with MDA-MB-435 it was > 100 µM; in the experiment with OVCAR-3 ovarian, > 100 µM. The GI50 in the experiment with OVCAR-4 ovarian is > 100 µM; in the experiment with PC-3 prostate it was > 100 µM; in the experiment with SK-MEL-5 melanoma, 71.4 µM; with U251 CNS, 74.7 µM. Moreover, the TGI in the experiment on 786-0 renal, with CAKI-1 renal, with HCC-2998 colon, in the experiment with IGROV1 ovarian, in the experiment with MDA-MB-435 and in the experiment on OVCAR-3 ovarian was > 100 µM each time. The TGI with OVCAR-4 ovarian, in the experiment on PC-3 prostate, with SK-MEL-5 melanoma and with U251 CNS was > 100 µM each time.
